PubChem BioAssay (NCI)
Values joined by “and” are separate entries in the source; they are usually repeats but may differ in a detail not shown here. Equal entries are not always repeated.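 Each compound was tested at five concentrations against cells in 96-well plates for 48 hours. Here, GI50 denotes the concentration required for 50% inhibition of growth. The concentration for full growth arrest is given as TGI.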 Active and inactive are the calls of the source. No stated cut-off is given here; in the data, active means GI50 below about 0.43 µM; inactive means the rest.

system: MDA-MB-468 breast; assay: growth of human tumour cells (NCI), 48 h

Question: Which results are given for COc1cccc(C2c3cc4c(cc3OC(N3CCCC3)C2C)OCO4)c1O (configuration not stated)?
Answer: GI50: 3.33 µM; TGI: 15.8 µM

Question: For COc1cc(CNc2ccccc2C(=O)N2CCN(C(=O)c3cc(-c4cc(OC)c(OC)c(OC)c4)n4nc(-c5ccccc5)cc4n3)CC2)cc(OC)c1OC, which GI50 is on record?
Answer: Its GI50 is 2.1 µM.

Question: What about the TGI of the same compound?
Answer: The TGI was 8.45 µM.

Question: What does the source list for CC(C)(C)[Si](C)(C)OC1[C@@H](O[Si](C)(C)C(C)(C)C)[C@@H](CNC(=O)NC(=O)CCl)O[C@H]1n1cnc2c(NC(=O)Nc3ccccc3)ncnc21 (some centres not stated)?
Answer: GI50: 0.839 µM; TGI: 1.91 µM

Question: Which GI50 does the source give for CNC(=O)Cc1nc(-c2cccc(NS(=O)(=O)c3c(F)cccc3F)c2F)c(-c2ccnc(Nc3ccccc3)n2)s1 here?
Answer: The GI50 was > 23.4 µM.

Question: And the TGI?
Answer: The TGI was > 50 µM.

Question: With COc1ccc2c(c1)CC[C@H](O)/C2=C/c1cc(OC)c(OC)c(OC)c1 as the compound, how does the GI50 read?
Answer: The GI50 was 0.2 µM.

Question: And the TGI?
Answer: The TGI was 15.8 µM.

Question: For O=C1/C(=C\c2ccccn2)c2ccccc2N1c1c(Cl)cccc1Cl, which GI50 is on record?
Answer: The GI50 was 1.26 µM.

Question: What about the TGI of the same compound?
Answer: The TGI was 3.1 µM.

Question: With O=C(Nc1ccc(-n2ccc3c(NC(=O)c4ccccc4)ncnc32)cc1)Nc1cccc(Cl)c1Cl as the compound, how does the GI50 read?
Answer: The GI50 was 1.18 µM.

Question: What about the TGI of the same compound?
Answer: The TGI was 3.42 µM.

Question: Which results are given for COc1cc(-c2nc(-c3nc4ccccc4[nH]3)cc3c2[nH]c2ccccc23)cc(OC)c1OC?
Answer: GI50: 3.32 µM; TGI: > 100 µM

Question: What does the source list for CN1C(=O)N[C@H]2[C@@H]3NC(=O)c4ccc(Br)n4[C@@H]3C[C@]21O?
Answer: GI50: 0.0253 µM; TGI: 0.173 µM

Question: Which results are given for COc1ccc2[nH]cc(-c3nc(N)nnc3-c3cn(C)c4ccc(Br)cc34)c2c1?
Answer: GI50: 0.698 µM; TGI: 16 µM

Question: For COc1ccc(/C=N\Nc2ccc([N+](=O)[O-])cn2)cc1OC, which GI50 is on record?
Answer: Its GI50 is > 100 µM.

Question: What about the TGI of the same compound?
Answer: The TGI was > 100 µM.

Question: Which GI50 does the source give for Nc1nc(N)c2cc(NCc3ccc(Cl)c(Cl)c3)ccc2n1 here?
Answer: Its GI50 is 1.06 µM.

Question: What about the TGI of the same compound?
Answer: The TGI was 2.23 µM.

Question: Which GI50 does the source give for O=C(OCc1ncc(-c2ccc(C(F)(F)F)cc2)c(NC2CCCCCC2)n1)c1c(F)c(F)c(F)c(F)c1F here?
Answer: The GI50 was 2 µM.

Question: And the TGI?
Answer: The TGI was 5.01 µM.

Question: For CCC(CNc1cc(OC)cc2cccnc12)NC1CCCCC1 (configuration not stated), which GI50 is on record?
Answer: The GI50 was 7.66 µM.

Question: And the TGI?
Answer: The TGI was 35.5 µM.

Question: Which GI50 does the source give for COc1ccc(C(=O)c2cc3c(N)c(C(=O)Nc4ccc(C)cc4)sc3nc2C)cc1 here?
Answer: Its GI50 is 1.87 µM.

Question: And the TGI?
Answer: Its TGI is 7.08 µM.

Question: Which GI50 does the source give for Cc1ccc(C)c(C2NC(=O)c3ccccc3N2)c1 (configuration not stated) here?
Answer: Its GI50 is 4.38 µM.

Question: What about the TGI of the same compound?
Answer: Its TGI is > 100 µM.

Question: How did the GI50 turn out when COC(=O)c1cc(O)c2c(c1C(=O)OC)C[C@H]1[C@@H]3CC=C4C[C@@H](O)CC[C@]4(C)[C@H]3CC[C@]21C was run?
Answer: The GI50 was 2.87 µM.

Question: And the TGI?
Answer: Its TGI is 18.1 µM.

Question: What does the source list for CCN(CC)CCCNC(=O)c1c2c(n3ccccc13)C(=O)c1ncccc1C2=O?
Answer: GI50: 0.283 µM; TGI: 1.08 µM

Question: How did the outcome turn out when CO[C@H](C(=O)[C@@H](O)[C@@H](C)O)[C@@H]1Cc2cc3cc(OC4CC(OC5CC(O)C(O)C(C)O5)C(O)C(C)O4)c(C)c(O)c3c(O)c2C(=O)[C@H]1OC1CC(OC2CC(OC3CC(C)(O)C(O)C(C)O3)C(O)C(C)O2)C(O)C(C)O1 (some centres not stated) was run?
Answer: Its outcome is “inactive”.

Question: What does the source list for Cn1c2ccc(Br)cc2c2c3c(c4c5ccccc5[nH]c4c21)C(=O)N(O)C3=O?
Answer: GI50: 0.214 µM; TGI: 0.638 µM

Question: N#Cc1c(NC(=O)c2ccccc2C(F)(F)F)sc2c1CCC(=O)C2 was tested. Which GI50 did it give?
Answer: Its GI50 is 1.69 µM.

Question: And the TGI?
Answer: The TGI was 4.68 µM.

Question: With Cc1ccc(N(CC(=O)Nc2ccc(S(=O)(=O)N3CCC(N4CCCC4)CC3)cc2)S(=O)(=O)c2ccc(Cl)cc2)cc1 as the compound, how does the GI50 read?
Answer: Its GI50 is 1.65 µM.

Question: What about the TGI of the same compound?
Answer: Its TGI is 3.48 µM.

Question: How did the GI50 turn out when CCOC(=O)CC1C(COC(=O)NC)OC(n2cnc3c(NC(=O)Nc4ccccc4)ncnc32)C1O[Si](C)(C)C(C)(C)C (configuration not stated) was run?
Answer: The GI50 was 19.7 µM.

Question: What about the TGI of the same compound?
Answer: Its TGI is 94.1 µM.

Question: Which GI50 does the source give for OCC(O)c1nc2ccc3[nH]ncc3c2c2c1CCCC2 (configuration not stated) here?
Answer: The GI50 was 1.04 µM.

Question: What about the TGI of the same compound?
Answer: Its TGI is 2.11 µM.

Question: With CCN(CC)CCCC(C)N=C(C1=C(C(=NC(C)CCCN(CC)CC)c2cccc(OC)c2)C(=O)NC1=O)c1cccc(OC)c1 (configuration not stated) as the compound, how does the GI50 read?
Answer: The GI50 was 0.869 µM.

Question: What about the TGI of the same compound?
Answer: Its TGI is 2.07 µM.

Question: How did the GI50 turn out when CCCC(CCC)C(=O)OCC1(CO)C/C(=C\c2ccc(F)cc2)C(=O)O1 (configuration not stated) was run?
Answer: Its GI50 is 11.3 µM.

Question: And the TGI?
Answer: The TGI was 24.2 µM.

Question: Which results are given for NC(=O)c1cccc(Nc2nccc(Nc3cccc4[nH]ncc34)n2)c1?
Answer: GI50: 2.12 µM; TGI: 9.35 µM

Question: What does the source list for Cc1sc2c(c1C)C(c1ccc(Cl)cc1)=N[C@@H](CC(=O)OC(C)(C)C)c1nnc(C)n1-2?
Answer: GI50: 0.0708 µM and 0.112 µM; TGI: 1.52 µM and 10.8 µM

Question: For CC(C)(C)CC(C)(C)NCc1cc(C(C)(C)C)cc(CNC(C)(C)CC(C)(C)C)c1O, which GI50 is on record?
Answer: The GI50 was 1.26 µM.

Question: What about the TGI of the same compound?
Answer: The TGI was 2.85 µM.
